Read-outs that look alike come from different tables or passages of the source.
Experiments:
[1] = biological target: PDK1 (Homo sapiens (Human), UniProt O15530); test: PDK1 kinase assay (coupled PDK1/AKT/FAM-crosstide assay, IMAP fluorescence polarization); format: biochemical; conditions: inhibition of phospo-PDK1 in vitro
Procedure, shortened: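 Inhibition is derived by 4-parameter fitting of ΔmP from an IMAP fluorescence polarization read of FAM-crosstide (100 nM) phosphorylation. The cascade ran 30 min at 25 °C with 40 μM ATP, using insect-cell GST-PDK1 51-359 (0.75 nM) driving 10 nM unphosphorylated AKT2 140-467-PIFtide fusion.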

[2] = test system: phospho-akt (Thr308) in PC-3 cells; test: Inhibition of phospho-akt (Thr308) in PC-3 cells, MSD phospho-akt 308 ELISA kit; format: cell-based; conditions: inhibition of P308 Akt in PC-3 cells, 2 hours, no serum, MSD, read-out: EC50
Procedure, shortened: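 Electrochemiluminescent MSD ELISA of Thr308-phosphorylated Akt after a 2 h serum-free compound exposure of PC-3 cells (15,000/well, plated overnight). Controls: DMSO (high), 5 μM wortmannin (low). Lysate binding overnight at 4 °C; detection antibody 1 h at room temperature.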

Sequence of PDK1 (O15530 51-359): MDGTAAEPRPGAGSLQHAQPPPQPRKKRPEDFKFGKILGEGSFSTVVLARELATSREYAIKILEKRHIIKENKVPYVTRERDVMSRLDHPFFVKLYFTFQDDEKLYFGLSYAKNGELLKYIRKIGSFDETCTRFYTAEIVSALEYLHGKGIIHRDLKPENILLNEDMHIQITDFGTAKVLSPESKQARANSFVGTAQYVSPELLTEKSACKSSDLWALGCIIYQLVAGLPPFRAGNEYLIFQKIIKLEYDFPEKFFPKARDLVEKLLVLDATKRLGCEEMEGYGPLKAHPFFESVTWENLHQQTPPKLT

Row | SMILES | IC50 [1] | EC50 ([2]; Homo sapiens) | EC50 ([2]; Homo sapiens, PC-3, 2 h) | EC50 [2]
1 | CN(C)S(=O)(=O)c1cnc(NCc2ccc(-c3ccc4ncnc(N)c4c3)s2)c(C(=O)NCc2ccc(F)c(F)c2)c1 [Example 8.7.5] | < 100 nM | < 1000 nM |  | 
2 | C[C@H](NC(=O)c1cc(S(=O)(=O)N(C)C)cnc1NCc1ccc(-c2ccc3ncnc(N)c3c2)s1)c1ccc(F)c(F)c1 [Example 8.7.6, 2-({[5-(4-aminoquinazolin-6-yl)thiophen-2-yl]methyl}amino)-N-[(1S)-1-(3,4-difluorophenyl)ethyl]-5-(dimethylsulfamoyl) pyridine-3-carboxamide] | < 100 nM |  |  | < 1000 nM
3 | CCC(C)NS(=O)(=O)c1cnc(NCc2ccc(-c3ccc4ncnc(N)c4c3)s2)c(C(=O)NCc2ccc(F)c(F)c2)c1 (stereo not shown) [Example 8.7.10, 2-({[5-(4-aminoquinazolin-6-yl)thiophen-2-yl]methyl}amino)-5-(butan-2-ylsulfamoyl)-N-(3,4-difluorobenzyl)pyridine-3-carboxamide] | 100 to 1000 nM | 1000 to 10000 nM |  | 
4 | CCNS(=O)(=O)c1cnc(NCc2ccc(-c3ccc4ncnc(N)c4c3)s2)c(C(=O)NCc2ccc(F)c(F)c2)c1 [Example 8.7.11, 2-({[5-(4-aminoquinazolin-6-yl)thiophen-2-yl]methyl}amino)-N-(3,4-difluorobenzyl)-5-(ethylsulfamoyl)pyridine-3-carboxamide] | 100 to 1000 nM | < 1000 nM |  | 
5 | Nc1ncnc2ccc(-c3ccc(CNc4ncc(S(=O)(=O)N5CCOCC5)cc4C(=O)NCc4ccc(F)c(F)c4)s3)cc12 [Example 8.7.12, 2-(((5-(4-aminoquinazolin-6-yl)thiophen-2-yl)methyl)amino)-N-(3,4-difluorobenzyl)-5-(morpholinosulfonyl) nicotinamide] | 100 to 1000 nM | < 1000 nM |  | 
6 | Nc1ncnc2ccc(-c3ccc(CNc4ncc(S(=O)(=O)NCc5cccnc5)cc4C(=O)NCc4ccc(F)c(F)c4)s3)cc12 [Example 8.7.13, 2-(((5-(4-aminoquinazolin-6-yl)thiophen-2-yl)methyl)amino)-N-(3,4-difluorobenzyl)-5-(N-(pyridin-3-ylmethyl)sulfamoyl)nicotinamide] | 100 to 1000 nM | 1000 to 10000 nM |  | 
7 | Cn1cnc2cnc(-c3ccc(CNc4nc5ccccc5cc4C(=O)NCc4ccc(F)c(F)c4)s3)cc21 [Example 8.14.2, N-(3,4-difluorobenzyl)-2-({[5-(1-methyl-1H-imidazo [4,5-c]pyridin-6-yl)thiophen-2-yl]methyl}amino)quinoline-3-carboxamide] | > 5000 nM | > 10000 nM |  | 
8 | Cn1cnc2cnc(-c3ccc(CNc4ncccc4C(=O)NCc4ccc(F)c(F)c4)s3)cc21 [Example 8.14.3, N-(3,4-difluorobenzyl)-2-({[5-(1-methyl-1H-imidazo [4,5-c]pyridin-6-yl)thiophen-2-yl]methyl}amino)pyridine-3-carboxamide] | > 5000 nM | 1000 to 10000 nM |  | 
9 | O=C(NCc1ccc(F)c(F)c1)c1cccnc1NCc1ccc(-c2ccn3ncnc3c2)s1 [Example 8.14.4, N-(3,4-difluorobenzyl)-2-({[5-([1,2,4]triazolo [1,5-a]pyridin-7-yl)thiophen-2-yl]methyl}amino)pyridine-3-carboxamide] | 1000 to 5000 nM | > 10000 nM |  | 
10 | Cn1cnc2cnc(-c3ccc(CNc4nc5c(cc4C(=O)NCc4ccc(F)c(F)c4)CCC5)s3)cc21 [Example 8.15.2, N-(3,4-difluorobenzyl)-2-({[5-(1-methyl-1H-imidazo[4,5-c]pyridin-6-yl)thiophen-2-yl]methyl}amino)-6,7-dihydro-5H-cyclopenta[b] pyridine-3-carboxamide] | > 5000 nM | > 10000 nM |  | 
11 | C[C@H](NC(=O)c1cccnc1NCc1cn(-c2ccc3[nH]c(=O)[nH]c3c2)nn1)c1ccc(F)c(F)c1 [Example 9.2, (S)-N-(1-(3,4-difluorophenyl)ethyl)-2-(((1-(2-oxo-2,3-dihydro-1H-benzo[d]imidazol-5-yl)-1H-1,2,3-triazol-4-yl)methyl)amino) nicotinamide] | > 5000 nM | > 10000 nM |  | 

Further lines, with some results ahead:

Row | IC50 [1] | EC50 ([2]; Homo sapiens) | EC50 ([2]; Homo sapiens, PC-3, 2 h) | SMILES | EC50 [2]
12 | 100 to 1000 nM | 1000 to 10000 nM |  | CNS(=O)(=O)c1cnc(NCc2ccc(-c3ccc4ncnc(N)c4c3)s2)c(C(=O)N[C@@H](C)c2ccc(F)cc2)c1 [Example 8.7.7, 2-({[5-(4-aminoquinazolin-6-yl)thiophen-2-yl]methyl}amino)-N-[(1S)-1-(4-fluorophenyl)ethyl]-5-(methylsulfamoyl) pyridine-3-carboxamide] | 
13 | 100 to 1000 nM | < 1000 nM |  | CS(=O)(=O)c1cnc(NCc2ccc(-c3ccc4ncnc(N)c4c3)s2)c(C(=O)NCc2ccc(F)c(F)c2)c1 [Example 8.7.8] | 
14 | 100 to 1000 nM |  | 1000 to 10000 nM | CC(C)NS(=O)(=O)c1cnc(NCc2ccc(-c3ccc4ncnc(N)c4c3)s2)c(C(=O)NCc2ccc(F)c(F)c2)c1 [Example 8.7.9, 2-({[5-(4-aminoquinazolin-6-yl)thiophen-2-yl]methyl}amino)-N-(3,4-difluorobenzyl)-5-(propan-2-ylsulfamoyl) pyridine-3-carboxamide] | 
15 | < 100 nM | < 1000 nM |  | C[C@H](NC(=O)c1cc(C#N)cnc1NCc1ccc(-c2ccc3ncnc(N)c3c2)s1)c1ccc(F)c(F)c1 [Example 8.8.2] | 
16 | < 100 nM | < 1000 nM |  | C[C@H](NC(=O)c1cc(C#N)cnc1NCc1ccc(-c2ccc3ncnc(N)c3c2)s1)c1ccc(F)cc1 [Example 8.8.3, 2-({[5-(4-aminoquinazolin-6-yl)thiophen-2-yl]methyl}amino)-5-cyano-N-[(1S)-1-(4-fluorophenyl)ethyl] pyridine-3-carboxamide] | 
17 | < 100 nM | 1000 to 10000 nM |  | Nc1ncnc2ccc(-c3ccc(CNc4nc(C(F)(F)F)ccc4C(=O)NCc4ccc(F)c(F)c4)s3)cc12 [Example 8.12.2, 2-({[5-(4-aminoquinazolin-6-yl)thiophen-2-yl]methyl}amino)-N-(3,4-difluorobenzyl)-6-(trifluoromethyl)pyridine-3-carboxamide] | 
18 | 1000 to 5000 nM | 1000 to 10000 nM |  | Nc1ncnc2ccc(-c3ccc(CNc4ncc(Cl)cc4C(=O)NCc4ccc(F)c(F)c4)s3)cc12 [Example 8.12.3, 2-({[5-(4-aminoquinazolin-6-yl)thiophen-2-yl]methyl}amino)-5-chloro-N-(3,4-difluorobenzyl)pyridine-3-carboxamide] | 
19 | > 5000 nM | 1000 to 10000 nM |  | Nc1ncnc2ccc(-c3ccc(CNc4nccc(C(F)(F)F)c4C(=O)NCc4ccc(F)c(F)c4)s3)cc12 [Example 8.12.4, 2-({[5-(4-aminoquinazolin-6-yl)thiophen-2-yl]methyl}amino)-N-(3,4-difluorobenzyl)-4-(trifluoromethyl)pyridine-3-carboxamide] | 
20 | < 100 nM | 1000 to 10000 nM |  | C[C@H](NC(=O)c1cc(C(F)(F)F)cnc1NCc1ccc(-c2ccc3ncnc(N)c3c2)s1)c1ccc(F)cc1 [Example 8.12.5, 2-({[5-(4-aminoquinazolin-6-yl)thiophen-2-yl]methyl}amino)-N-[(1S)-1-(4-fluorophenyl)ethyl]-5-(trifluoromethyl)pyridine-3-carboxamide] | 
21 | < 100 nM | < 1000 nM |  | C[C@H](NC(=O)c1cc(C(F)(F)F)cnc1NCc1ccc(-c2ccc3ncnc(N)c3c2)s1)c1ccc(F)c(F)c1 [Example 8.12.6, 2-({[5-(4-aminoquinazolin-6-yl)thiophen-2-yl]methyl}amino)-N-[(1S)-1-(3,4-difluorophenyl)ethyl]-5-(trifluoromethyl)pyridine-3-carboxamide] | 
22 | 100 to 1000 nM | < 1000 nM |  | C[C@H](NC(=O)c1cc(C(F)(F)F)cnc1NCc1ccc(-c2cc3c(N)ncnc3cn2)s1)c1ccc(F)cc1 [Example 8.12.7, 2-({[5-(4-aminopyrido [3,4-d]pyrimidin-6-yl)thiophen-2-yl]methyl}amino)-N-[(1S)-1-(4-fluorophenyl)ethyl]-5-(trifluoromethyl) pyridine-3-carboxamide] | 
23 | 100 to 1000 nM | 1000 to 10000 nM |  | C[C@H](NC(=O)c1cc(C(F)(F)F)cnc1NCc1ccc(-c2cc3c(N)ncnc3cn2)s1)c1ccc(F)c(F)c1 [Example 8.12.8, 2-({[5-(4-aminopyrido [3,4-d]pyrimidin-6-yl)thiophen-2-yl]methyl}amino)-N-[(1S)-1-(3,4-difluorophenyl)ethyl]-5-(trifluoromethyl) pyridine-3-carboxamide] | 
24 | < 100 nM | > 10000 nM |  | Nc1ncnc2ccc(-c3ccc(CNc4ncc(C(F)(F)F)nc4C(=O)NCc4ccc(F)c(F)c4)s3)cc12 [Example 10.10, 3-(((5-(4-aminoquinazolin-6-yl)thiophen-2-yl)methyl)amino)-N-(3,4-difluorobenzyl)-6-(trifluoromethyl)pyrazine-2-carboxamide] | 
25 | < 100 nM | 1000 to 10000 nM |  | C[C@H](NC(=O)c1cn(C)nc1NCc1ccc(-c2ccc3ncnc(N)c3c2)s1)c1ccc(F)c(F)c1 [Example 11.4, (S)-3-(((5-(4-aminoquinazolin-6-yl)thiophen-2-yl)methyl)amino)-N-(1-(3,4-difluorophenyl)ethyl) 1-methyl-1H-pyrazole-4-carboxamide] | 
26 | < 100 nM | 1000 to 10000 nM |  | C[C@H](NC(=O)c1cn(C)nc1NCc1ccc(-c2ccc3ncnc(N)c3c2)s1)c1ccc(F)cc1 [Example 11.5, 3-({[5-(4-aminoquinazolin-6-yl)thiophen-2-yl]methyl}amino)-N-[(1S)-1-(4-fluorophenyl)ethyl]-1-methyl-1H-pyrazole-4-carboxamide] | 

Source: patent US10030016B2 (Sunesis Pharmaceuticals, Inc., priority 2009, dated 2018)
